Laboratory results as given in US9801850B2, “Antibacterial agent” (OSAKA UNIVERSITY, priority 2009, dated 2017).
In brackets after ≈: the same amount, converted by molar mass.

Key:
MSSA ATCC25923 [1] = experiment: MIC with addition of PG, LPS or D-Ala-D-Ala (Example 3); format: cell-based, Staphylococcus aureus; conditions: for MIC: MSSA (ATCC25923); for change in MIC by the addition of PG: MSSA ATCC25923, PG 30 μg/ml
Procedure: (§1) Regarding EGCG-C16, whether or not the antibacterial action thereof against MSSA and MRSA is inhibited by the addition of: peptidoglycan (PG) or D-Ala-D-Ala, which are each a cell wall component; or lipopolysaccharide (LPS), which is an outer membrane component, was examined. The MIC measurement was carried out in the manner described in Section (2) of Example 2.
(§2) In Example 3, EGCG-C16 prepared in Example 1 was used as an antibacterial agent. In Comparative Example 3, unsubstituted EGCG was used as an antibacterial agent. […] Antibacterial agent solutions of EGCG-C16 and EGCG were prepared in the same manner as described in Section (2) of Example 1. Antibacterial agent solutions of the antibacterial agents other than EGCG-C16 and EGCG were prepared by dissolving them in PBS.
(§3) As additives, PG (Peptidoglycan Staphylococcus aureus, SIGMA-ALDRICH), D-Ala-D-Ala (SIGMA-ALDRICH), and LPS (Lipopolysaccharide Salmonella, SIGMA-ALDRICH) were provided. Each of the additives was dissolved in PBS, and the resultant solution was used as an additive solution.
(§4) Dilution series of the antibacterial agent solutions were prepared. Each of them was dispensed to a 96-well plate. Further, the additive solution was added thereto and mixed. After that, a bacterial culture solution of MRSA ATCC43300 or MSSA ATCC25923 was added thereto and cultured at 37° C. for 18 hours. In the mixture of the antibacterial agent solution, the additive solution, and the bacterial culture solution, the final concentrations of PG, D-Ala-D-Ala, and LPS were each set to 30 μg/ml. Unless otherwise stated, the minimum inhibitory concentration (MIC) was calculated in the same manner as described in Section (2) of Example 2.

MRSA ATCC43300 [2] = experiment: as above; format: cell-based, Staphylococcus aureus; conditions: for MIC: MRSA (ATCC43300); for change in MIC by the addition of PG: MRSA ATCC43300, PG 30 μg/ml
Procedure: as §1, §2, §3, §4

[3] = test system: Methicillin-susceptible Staphylococcus aureus (MSSA) NCTC8325; experiment: MIC, broth microdilution (Example 1); format: cell-based; conditions: MH-broth, 37° C., 18 hours
Procedure: (§5) Methicillin-susceptible Staphylococcus aureus (MSSA) NCTC8325 and methicillin-resistant Staphylococcus aureus (MRSA) ATCC43300 were used as bacteria. The bacteria of each type were cultured using Mueller-Hinton Broth (MH-broth, Difco) as a medium. Then, the minimum inhibitory concentration (MIC) of each of the EGCG derivatives was measured by a broth microdilution method in accordance with the Clinical and Laboratory Standards Institute (CLSI) guidelines (hereinafter the same).
(§6) First, each of the EGCG derivatives was dissolved in 100% dimethyl sulfoxide (DMSO, Wako Pure Chemical Industries, Ltd.) so that the concentration thereof became 5120 μg/ml. The resultant solution was diluted with DMSO or sterile distilled water so as to prepare two-fold dilution series of antibacterial agent solutions. […] Each of these antibacterial agent solutions was dispensed to wells of a 96-well plate. The concentration of the EGCG derivative in the antibacterial agent solution dispensed to the wells was set to be 10 times as high as the final concentration. On the other hand, the bacteria were cultured in the MH-broth at 37° C. overnight, and the thus-obtained pre-culture solution was diluted with a new MH-broth so that the concentration thereof in the MH-broth became 10^−4 (10^4-fold dilution), thus preparing a bacterial culture solution of about 1×10^5 CFU/ml (CFU: Colony Forming Unit, the number of viable cells). The bacterial culture solution was further added to each well, and the mixture was cultured at 37° C. for 18 hours. The ratio (volume ratio) between the antibacterial agent solution and the bacterial culture solution added to each well was set to 1:9 (the antibacterial agent solution:the bacterial culture solution), and the volume of the mixture of them per well was set to 100 μl in total. The final concentration of the EGCG derivative in the mixture was set to 8 μg/ml to 512 μg/ml, and the number of viable cells in the mixture was set to about 1×10^5 CFU/ml. Then, after the completion of the culture, the MIC was determined. Also, the turbidity (OD600 nm) was measured using a plate reader so as to identify minor differences.
(§7) As Comparative Example 1, the same procedures as in Example 1 were performed, except that unsubstituted EGCG was used as an antibacterial agent instead of the EGCG derivatives of Example 1. Furthermore, as a control, the same procedures as in Example 1 were performed, except that sterile distilled water, 100% DMSO, or 50% DMSO was used instead of the antibacterial agent solutions containing the EGCG derivatives.

[4] = test system: methicillin-resistant Staphylococcus aureus (MRSA) ATCC43300; experiment: MIC, broth microdilution (Example 1); format: cell-based; conditions: for MIC: MRSA ATCC43300, MH-broth, 37° C., 18 hours
Procedure: as §5, §6, §7

MRSA ATCC43300 [5] = experiment: Membrane damaging properties, SYTOX Green fluorescence (Example 4); format: cell-based, Staphylococcus aureus; conditions: 37° C., 15 minutes, EGCG derivative 4-32, EGCG 8-128, NISIN 1-8 μg/ml, FIG. 3
Procedure: (§8) As an antibacterial agent, the EGCG-C16 prepared in Example 1 was used in Example 4; EGCG was used in Comparative Example 4; and membrane-damaging peptide NISIN (MP Biomedicals) was used in a reference example. Antibacterial agent solutions of EGCG-C16 and EGCG were prepared by dissolving them in DMSO so as to achieve top concentrations, respectively. An antibacterial agent solution of the other antibacterial agent was prepared by dissolving it in PBS and diluted with PBS as appropriate. The influence of DMSO used for dissolving the antibacterial agents also was considered.
MSSA ATCC25923 and MRSA ATCC43300 were subjected to shaking culture in MH-broths (Difco) until they reached a late stage in the exponential growth phase. The thus-obtained culture solutions were each centrifuged at 7000 rpm for 10 minutes, and bacterial cells that had settled were suspended in PBS. The suspension of the bacterial cells was added to wells of a 384 black plate, and each of the antibacterial agent solutions was further added thereto and mixed. The resultant mixture was incubated at 37° C. for 15 minutes. Subsequently, a dead cell-staining dye (trade name “SYTOX Green”, LONZA) was mixed in each well so that the concentration thereof became 10 μmol/l, and the resultant mixture was incubated at 37° C. for 10 minutes. The final concentrations of the respective antibacterial agents were as follows: 4, 8, 16, and 32 μg/ml for the EGCG derivative; 8, 16, 32, 64, and 128 μg/ml for EGCG; and 1, 2, 4, and 8 μg/ml for NISIN. […] On the other hand, as a control, the fluorescence intensity was measured in the same manner, except that PBS or 10% DMSO was added instead of the antibacterial agent solutions. Then, regarding each of the MSSA and MRSA, the ratio of the fluorescence intensity when each of the agents was added was calculated assuming that the fluorescence intensity obtained in the control (PBS) was 1.

MSSA ATCC25923 [6] = experiment: as above; format: cell-based, Staphylococcus aureus; conditions: 37° C., 15 minutes, EGCG derivative 4-32, EGCG 8-128, NISIN 1-8 μg/ml, FIG. 3
Procedure: as §8
MSSA ATCC25923 and MRSA ATCC43300 were subjected to shaking culture in MH-broths (Difco) until they reached a late stage in the exponential growth phase. The thus-obtained culture solutions were each centrifuged at 7000 rpm for 10 minutes, and bacterial cells that had settled were suspended in PBS. The suspension of the bacterial cells was added to wells of a 384 black plate, and each of the antibacterial agent solutions was further added thereto and mixed. The resultant mixture was incubated at 37° C. for 15 minutes. Subsequently, a dead cell-staining dye (trade name “SYTOX Green”, LONZA) was mixed in each well so that the concentration thereof became 10 μmol/l, and the resultant mixture was incubated at 37° C. for 10 minutes. […] On the other hand, as a control, the fluorescence intensity was measured in the same manner, except that PBS or 10% DMSO was added instead of the antibacterial agent solutions. Then, regarding each of the MSSA and MRSA, the ratio of the fluorescence intensity when each of the agents was added was calculated assuming that the fluorescence intensity obtained in the control (PBS) was 1.

[7] = +D-Ala-D-Ala (30 μg/mL), lower part of Table 9
[8] = +LPS (30 μg/mL), upper part of Table 9
[9] = +PG (30 μg/mL), lower part of Table 9 (PG/D-Ala-D-Ala series)
[10] = +PG (30 μg/mL), upper part of Table 9 (PG/LPS series)
[11] = MH-broth free of additives, lower part of Table 9 (PG/D-Ala-D-Ala series)
[12] = MH-broth free of additives, upper part of Table 9 (PG/LPS series)

Row | Molecule | MIC (MSSA ATCC25923 [1]; [7]) [µg/mL] | MIC (MSSA ATCC25923 [1]; [8]) [µg/mL] | MIC (MSSA ATCC25923 [1]; [9]) [µg/mL] | MIC (MSSA ATCC25923 [1]; [11]) [µg/mL] | MIC (MSSA ATCC25923 [1]; [12]) [µg/mL] | MIC (MRSA ATCC43300 [2]; [7]) [µg/mL] | MIC (MRSA ATCC43300 [2]; [8]) [µg/mL] | MIC (MRSA ATCC43300 [2]; [9]) [µg/mL] | MIC (MRSA ATCC43300 [2]; [10]) [µg/mL] | MIC (MRSA ATCC43300 [2]; [11]) [µg/mL] | MIC (MRSA ATCC43300 [2]; [12]) [µg/mL] | further results
1 | CN[C@H](CC(C)C)C(=O)N[C@H]1C(=O)N[C@@H](CC(N)=O)C(=O)N[C@H]2C(=O)N[C@H]3C(=O)N[C@H](C(=O)N[C@H](C(=O)O)c4cc(O)cc(O)c4-c4cc3ccc4O)[C@H](O)c3ccc(c(Cl)c3)Oc3cc2cc(c3O[C@@H]2O[C@H](CO)[C@@H](O)[C@H](O)[C@H]2O[C@H]2C[C@](C)(N)[C@H](O)[C@H](C)O2)Oc2ccc(cc2Cl)[C@H]1O [VCM, vancomycin] | 16 (≈ 11 µM) | 2 (≈ 1.38 µM) | 2 (≈ 1.38 µM) | 1 (≈ 0.69 µM) | 2 (≈ 1.38 µM) | 16 (≈ 11 µM) | 2 (≈ 1.38 µM) | 2 (≈ 1.38 µM) | 4 (≈ 2.76 µM) | 1 (≈ 0.69 µM) | 2 (≈ 1.38 µM) | MIC (MSSA ATCC25923 [1]; [10]): 4 µg/mL (≈ 2.76 µM); change in MIC by the addition of PG (MSSA ATCC25923 [1]): doubled; change in MIC by the addition of PG (MRSA ATCC43300 [2]): doubled
2 | EGCG-octanonate [EGCG-C8] |  |  |  |  |  |  |  |  |  |  |  | MIC [3]: 8 µg/mL
3 | EGCG-eicosanoate [EGCG-C20] |  |  |  |  |  |  |  |  |  |  |  | MIC [4]: 128 µg/mL
4 | CC1(C)S[C@@H]2[C@H](NC(=O)[C@H](N)c3ccccc3)C(=O)N2[C@H]1C(=O)O [ABPC, ampicillin] | 0.25 (≈ 0.715 µM) | 0.25 (≈ 0.715 µM) | 0.25 (≈ 0.715 µM) | 0.25 (≈ 0.715 µM) | 0.25 (≈ 0.715 µM) | 16 (≈ 45.8 µM) | 32 (≈ 91.6 µM) | 8 (≈ 22.9 µM) | 32 (≈ 91.6 µM) | 16 (≈ 45.8 µM) | 32 (≈ 91.6 µM) | 
5 | teicoplanin | 32 | 1 | 2 | 1 | 1 | 16 | 1 | 1 | 1 | 0.5 | 0.5 | MIC (MSSA ATCC25923 [1]; [10]): 2 µg/mL; change in MIC by the addition of PG (MSSA ATCC25923 [1]): doubled; change in MIC by the addition of PG (MRSA ATCC43300 [2]): doubled
6 | EGCG-laurate [EGCG-C12] |  |  |  |  |  |  |  |  |  |  |  | MIC [4]: 16 µg/mL; inhibition of propagation (MIC, turbidity OD600 nm) ([4]; MRSA, FIG. 1 and Table 3): remarkable propagation-inhibiting effect; MIC [3]: 8 µg/mL
7 | NISIN [reference compound] |  |  |  |  |  |  |  |  |  |  |  | fluorescence intensity ratio of SYTOX Green (control PBS = 1) (MRSA ATCC43300 [5]): very high fluorescence intensity ratio; fluorescence intensity ratio of SYTOX Green (control PBS = 1) (MSSA ATCC25923 [6]): very high fluorescence intensity ratio
